Measured values reported in PubChem BioAssay AID2060497 (Molecular Pharmacology Branch, DTP, NCI, 2025).

System: 317291-083-R-J1-PDC complex spheroids, viability
Assay: Anticancer human tumor 317291-083-R-J1-PDC patient-derived soft tissue sarcoma cell line growth inhibition [GQUAD]
Details: for IC50: curve of first compound; for viability, T/C: stronger effect = lower value
Excerpt: DNA G-quadruplex Stabilizer Agents in Combinations in Complex Spheroids
A high-throughput screen of multi-cell type tumor spheroids was designed to identify active combinations of DNA G-quadruplex stabilizer agents and targeted small molecules. Complex spheroids include a stromal component modeled by human endothelial cells (HUVEC) and fibroblasts modeled by human mesenchymal stem cells (MSCs). The concentration ranges selected for each drug and investigational agent were based upon clinically achievable concentrations if the clinical Cmax of the agent was known.
Compounds. The drugs and investigational agents: pidnarulex (CX-5461; NSC782164), APTO-253 (NSC789042), BRACO-19 (NSC847499), peposertib (NSC802822), ceralasertib (NSC780249), elimusertib (NSC800525), camonsertib (NSC841442), AZD-1390 (NSC803789), olaparib (NSC753686), talazoparib (NSC767125), ART-558 (NSC835418), sotorasib (NSC818433), MRTX-1133 (NSC836407), SN-38 (NSC673596), topotecan (NSC609699), etoposide (NSC141540), doxorubicin (NSC123127), gemcitabine (NSC613327), 5-fluorouracil (NSC19893), paclitaxel (NSC125973), vemurafenib (NSC761431), panobinostat (NSC761190), R-306465 (JNJ-16241199; NSC773264), adavosertib (NSC754352), TP-3654 (NSC805149), carboplatin (NSC241240), KSQ-4279 (NSC840948), and staurosporine (NSC755774) were obtained from the National Cancer Institute (NCI) Developmental Therapeutics Program Chemical Repository (34). The FDA-approved anticancer drug set is available from the NCI Developmental Therapeutics Program. […] The stock solutions were prepared in dimethyl sulfoxide (DMSO, Sigma-Aldrich, St. Louis, MO, cat. D2650) at 800-fold the tested concentration and stored at -70 degrees C prior to their use. All drugs and investigational agents were tested over a range starting from a high concentration at or near the clinical Cmax and decreasing in half-log increments. If the clinical Cmax for an agent had not been determined, the highest concentration tested was 10 microM.
2.3 Cell Culture. All cells were maintained in an incubator at 37 degrees C and 5% CO2 with 95% humidity. The PDC lines were cultured according to standard operating procedures established by the NCI PDMR. All PDCs were thawed and cultured in Matrigel-coated flasks prepared with a working solution of 1X Ham's F-12 nutrient mix, without supplementation (Invitrogen, cat. 11765054), 100 U/mL penicillin-streptomycin (Invitrogen, cat. 15140122), and 2.5% Matrigel (Corning Inc., cat. 354248) for the first three passages. The 857933-349-R-J2-PDC line was cultured in 6C/Colon 1B media, which includes advanced DMEM/F-12 (Thermo Fisher Scientific, cat. 12634028), 10 mM HEPES (Thermo Fisher Scientific, cat. 15630080), 1X GlutaMAX supplement (Thermo Fisher Scientific, cat. 35050061), 0.1 mg/mL primocin (InvivoGen, cat. ant-pm-2), 10% defined fetal bovine serum, heat inactivated (HyClone Laboratories Inc., cat. SH30070.03HI), 50% L-WRN conditioned media (ATCC, cat. CRL-3276), 1.25 mM N-Acetyl-L-cysteine (Sigma-Aldrich, cat. A9165), 10 mM nicotinamide (Sigma-Aldrich, cat. N0636), 1X B-27 supplement (Thermo Fisher Scientific, cat. 17504044), 1X N-2 supplement (Thermo Fisher Scientific, cat. 17502048), 10 microM Y-27632 dihydrochloride (Tocris Bioscience, cat. 1254), and 50 ng/mL human EGF recombinant protein (Thermo Fisher Scientific, cat. PHG0311). The 485176-168-R4-J1-PDC line was cultured in Panc media, which includes all 6C/Colon 1B media components plus 100 ng/mL human FGF-10 (Thermo Fisher Scientific, cat. 100-26), 500 nM SB-431542 (Selleckchem, cat. S1067), and gastrin (Tocris, cat. 3006).
[…]

[1] = second compound 0.0316 µM, first compound 0.0316 µM
[2] = second compound 0.0316 µM, first compound 0.1 µM
[3] = second compound 0.0316 µM, first compound 0.316 µM
[4] = second compound 0.0316 µM, first compound 1 µM
[5] = second compound 0.0316 µM, first compound 3.16 µM
[6] = second compound 0.0316 µM, first compound 10 µM
[7] = second compound 0.1 µM, first compound 0.0316 µM
[8] = second compound 0.1 µM, first compound 0.1 µM
[9] = second compound 0.1 µM, first compound 0.316 µM
[10] = second compound 0.1 µM, first compound 1 µM
[11] = second compound 0.1 µM, first compound 3.16 µM
[12] = second compound 0.1 µM, first compound 10 µM
[13] = second compound 0.316 µM, first compound 0.0316 µM
[14] = second compound 0.316 µM, first compound 0.1 µM
[15] = second compound 0.316 µM, first compound 0.316 µM
[16] = second compound 0.316 µM, first compound 1 µM
[17] = second compound 0.316 µM, first compound 3.16 µM
[18] = second compound 0.316 µM, first compound 10 µM
[19] = second compound 1 µM, first compound 0.0316 µM
[20] = second compound 1 µM, first compound 0.1 µM
[21] = second compound 1 µM, first compound 0.316 µM
[22] = second compound 1 µM, first compound 1 µM
[23] = second compound 1 µM, first compound 3.16 µM
[24] = second compound 1 µM, first compound 10 µM
[25] = second compound 3.16 µM, first compound 0.0316 µM
[26] = second compound 3.16 µM, first compound 0.1 µM
[27] = second compound 3.16 µM, first compound 0.316 µM
[28] = second compound 3.16 µM, first compound 1 µM
[29] = second compound 3.16 µM, first compound 3.16 µM
[30] = second compound 3.16 µM, first compound 10 µM
[31] = second compound 10 µM, first compound 0.0316 µM
[32] = second compound 10 µM, first compound 0.1 µM
[33] = second compound 10 µM, first compound 0.316 µM
[34] = second compound 10 µM, first compound 1 µM
[35] = second compound 10 µM, first compound 3.16 µM
[36] = second compound 10 µM, first compound 10 µM
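Note: spheroids exposed to compounds for one week before readout.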
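Throughout, for viability, T/C: percent viability relative to DMSO vehicle wells taken as 100%.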

CCCS(=O)(=O)Nc1ccc(F)c(C(=O)c2c[nH]c3ncc(-c4ccc(Cl)cc4)cc23)c1F + Cc1[nH]c2ccc(F)cc2c1-c1nc2c3cccnc3c3ncccc3c2[nH]1
IC50 (second compound 0.0316 µM): 2.61 µM
IC50 (second compound 0.1 µM): 2.61 µM
IC50 (second compound 0.316 µM): 1.76 µM
IC50 (second compound 1 µM): 0.343 µM
IC50 (second compound 3.16 µM): < 0.0316 µM
IC50 (second compound 10 µM): < 0.0316 µM
viability, T/C [1]: 110%
viability, T/C [2]: 103%
viability, T/C [3]: 95.6%
viability, T/C [4]: 89.2%
viability, T/C [5]: 41.7%
viability, T/C [6]: 14.3%
viability, T/C [7]: 95.5%
viability, T/C [8]: 88.3%
viability, T/C [9]: 83.5%
viability, T/C [10]: 94.3%
viability, T/C [11]: 41.9%
viability, T/C [12]: 14%
viability, T/C [13]: 73.5%
viability, T/C [14]: 72.5%
viability, T/C [15]: 67.1%
viability, T/C [16]: 67.8%
viability, T/C [17]: 31.7%
viability, T/C [18]: 10.3%
viability, T/C [19]: 62.1%
viability, T/C [20]: 61%
viability, T/C [21]: 41.5%
viability, T/C [22]: 41.6%
viability, T/C [23]: 37.7%
viability, T/C [24]: 11.3%
viability, T/C [25]: 46%
viability, T/C [26]: 26.5%
viability, T/C [27]: 30.2%
viability, T/C [28]: 19.9%
viability, T/C [29]: 15.9%
viability, T/C [30]: 5.4%
viability, T/C [31]: 40.7%
viability, T/C [32]: 47.5%
viability, T/C [33]: 42.4%
viability, T/C [34]: 49.3%
viability, T/C [35]: 25.3%
viability, T/C [36]: 6.95%

COc1ncnc(C2CC2)c1-c1ncc2cnn(Cc3ccc(-c4nc(C(F)(F)F)cn4C(C)C)cc3)c2n1 + Cc1[nH]c2ccc(F)cc2c1-c1nc2c3cccnc3c3ncccc3c2[nH]1
IC50 (second compound 0.0316 µM): > 10 µM
IC50 (second compound 0.1 µM): > 10 µM
IC50 (second compound 0.316 µM): 0.2 µM
IC50 (second compound 1 µM): < 0.0316 µM
IC50 (second compound 3.16 µM): < 0.0316 µM
IC50 (second compound 10 µM): < 0.0316 µM
viability, T/C [1]: 110%
viability, T/C [2]: 77.8%
viability, T/C [3]: 84.5%
viability, T/C [4]: 72.2%
viability, T/C [5]: 64.3%
viability, T/C [6]: 92.3%
viability, T/C [7]: 85.7%
viability, T/C [8]: 96.5%
viability, T/C [9]: 68.3%
viability, T/C [10]: 63.7%
viability, T/C [11]: 93.4%
viability, T/C [12]: 65%
viability, T/C [13]: 63.3%
viability, T/C [14]: 52.8%
viability, T/C [15]: 50.4%
viability, T/C [16]: 37.2%
viability, T/C [17]: 46%
viability, T/C [18]: 35.2%
viability, T/C [19]: 41.4%
viability, T/C [20]: 37.9%
viability, T/C [21]: 35.3%
viability, T/C [22]: 41.2%
viability, T/C [23]: 40.5%
viability, T/C [24]: 39.8%
viability, T/C [25]: 35.1%
viability, T/C [26]: 27.6%
viability, T/C [27]: 27.1%
viability, T/C [28]: 23.3%
viability, T/C [29]: 23.2%
viability, T/C [30]: 30.5%
viability, T/C [31]: 35.8%
viability, T/C [32]: 35.8%
viability, T/C [33]: 31.1%
viability, T/C [34]: 33.8%
viability, T/C [35]: 33.5%
viability, T/C [36]: 28.3%
